Measured values published in ChEMBL document CHEMBL1147830, “Isoquinoline-pyridine-based protein kinase B/Akt antagonists: SAR and in vivo antitumor activity” (Bioorg Med Chem Lett, 2006).

Legend:
[1] = system: MIA PaCa-2; assay: Antiproliferative activity against human MiaPaCa2 cells by MTT assay; assay type: functional, cell-based
[2] = target: Proto-oncogene tyrosine-protein kinase Src (Homo sapiens, UniProt P12931); assay: Inhibition of SRC at 5 uM ATP
[3] = target: cAMP-dependent protein kinase (PKA) (Homo sapiens, UniProt P22694+P17612+P22612); assay: Inhibition of PKA at 5 uM ATP; assay type: protein assay
[4] = target: Cyclin-dependent kinase 1 (Homo sapiens, UniProt P06493); assay: Inhibition of CDK1 at 5 uM ATP
[5] = target: RAC-beta serine/threonine-protein kinase (Homo sapiens, UniProt P31751); assay: Inhibition of Akt2 at 5 uM ATP
[6] = target: RAC-gamma serine/threonine-protein kinase (Homo sapiens, UniProt Q9Y243); assay: Inhibition of Akt3 at 5 uM ATP
[7] = target: T1, Protein kinase C epsilon type (Homo sapiens, UniProt Q02156); assay: Inhibition of PKC epsilon at 5 uM ATP
T1 sequence (Q02156 whole entry): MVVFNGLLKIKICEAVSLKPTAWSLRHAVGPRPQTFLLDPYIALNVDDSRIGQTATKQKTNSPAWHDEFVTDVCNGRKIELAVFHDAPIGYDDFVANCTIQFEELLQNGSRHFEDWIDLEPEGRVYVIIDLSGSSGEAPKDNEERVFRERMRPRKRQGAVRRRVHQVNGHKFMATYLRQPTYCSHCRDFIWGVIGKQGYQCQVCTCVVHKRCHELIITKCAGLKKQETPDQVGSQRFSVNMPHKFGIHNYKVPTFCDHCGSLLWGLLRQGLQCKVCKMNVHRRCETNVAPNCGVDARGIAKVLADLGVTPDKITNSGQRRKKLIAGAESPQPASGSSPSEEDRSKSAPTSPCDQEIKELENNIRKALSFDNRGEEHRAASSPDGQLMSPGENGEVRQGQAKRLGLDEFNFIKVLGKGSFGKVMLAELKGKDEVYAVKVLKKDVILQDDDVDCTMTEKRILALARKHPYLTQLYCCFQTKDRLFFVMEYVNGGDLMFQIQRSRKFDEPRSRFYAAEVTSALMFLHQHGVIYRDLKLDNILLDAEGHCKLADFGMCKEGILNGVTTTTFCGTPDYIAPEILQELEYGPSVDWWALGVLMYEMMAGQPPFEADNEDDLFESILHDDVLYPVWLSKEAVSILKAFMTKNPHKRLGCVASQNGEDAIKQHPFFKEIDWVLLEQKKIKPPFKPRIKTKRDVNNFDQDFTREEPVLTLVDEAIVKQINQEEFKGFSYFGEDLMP

[8] = target: Mitogen-activated protein kinase 1 (Homo sapiens, UniProt P28482); assay: Inhibition of ERK2 at 5 uM ATP
[9] = target: Protein kinase C gamma type (Homo sapiens, UniProt P05129); assay: Inhibition of PKC gamma at 5 uM ATP
[10] = target: Casein kinase II (Homo sapiens, UniProt P19784+P67870+P68400); assay: Inhibition of CK2 at 5 uM ATP; assay type: protein-complex assay
[11] = Clearance in CD1 mouse at 3 mg/kg, iv or 10 mg/kg, po or 30 mg, sc; assay type: ADME, organism-based; parameters: unit not given here; details: in vivo
[12] = AUC in CD1 mouse at 10 mg/kg, po; assay type: ADME, organism-based; parameters: dose 10 mg/kg, route oral; details: plasma
[13] = Volume of distribution in CD1 mouse at 3 mg/kg, iv or 10 mg/kg, po or 30 mg, sc; assay type: ADME, organism-based; details: in vivo, read-out: Vdss
[14] = Bioavailability in CD1 mouse at 10 mg/kg, po; assay type: ADME, organism-based; details: in vivo
[15] = Half life in CD1 mouse at 3 mg/kg, iv; assay type: ADME, organism-based; parameters: dose 3 mg/kg, route intravenous; details: in vivo
[16] = target: RAC-alpha serine/threonine-protein kinase (Homo sapiens, UniProt P31749); assay: Inhibition of GSK3 phosphorylation; assay type: functional
[17] = AUC in CD1 mouse at 30 mg, sc; assay type: ADME, organism-based; details: plasma
[18] = Antiproliferative activity against mouse FL5.12 cells overexpressing Akt1 by MTT assay

RAC-beta serine/threonine-protein kinase, sequence (P31751 whole entry): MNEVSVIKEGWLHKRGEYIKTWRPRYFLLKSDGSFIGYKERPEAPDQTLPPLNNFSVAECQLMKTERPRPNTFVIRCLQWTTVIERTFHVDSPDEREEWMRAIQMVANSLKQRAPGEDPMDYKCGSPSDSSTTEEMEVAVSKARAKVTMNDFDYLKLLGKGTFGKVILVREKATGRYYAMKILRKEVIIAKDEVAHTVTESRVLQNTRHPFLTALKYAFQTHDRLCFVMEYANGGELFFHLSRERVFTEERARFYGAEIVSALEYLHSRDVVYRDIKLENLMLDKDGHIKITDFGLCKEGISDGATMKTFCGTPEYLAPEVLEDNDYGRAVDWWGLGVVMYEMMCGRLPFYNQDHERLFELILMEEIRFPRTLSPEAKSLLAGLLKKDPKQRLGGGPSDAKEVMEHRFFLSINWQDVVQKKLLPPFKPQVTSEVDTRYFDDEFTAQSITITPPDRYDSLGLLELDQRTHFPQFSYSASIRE
Mitogen-activated protein kinase 1, sequence (P28482 whole entry): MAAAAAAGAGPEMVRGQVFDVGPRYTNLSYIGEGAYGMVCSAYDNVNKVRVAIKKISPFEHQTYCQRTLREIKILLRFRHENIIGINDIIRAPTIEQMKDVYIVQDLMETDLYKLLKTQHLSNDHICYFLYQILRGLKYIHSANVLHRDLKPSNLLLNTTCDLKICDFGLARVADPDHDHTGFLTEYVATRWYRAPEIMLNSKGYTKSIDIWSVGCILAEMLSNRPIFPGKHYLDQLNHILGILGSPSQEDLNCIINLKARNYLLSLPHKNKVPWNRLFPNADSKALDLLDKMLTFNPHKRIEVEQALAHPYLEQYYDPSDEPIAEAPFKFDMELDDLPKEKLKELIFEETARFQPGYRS
RAC-alpha serine/threonine-protein kinase, sequence (P31749 whole entry): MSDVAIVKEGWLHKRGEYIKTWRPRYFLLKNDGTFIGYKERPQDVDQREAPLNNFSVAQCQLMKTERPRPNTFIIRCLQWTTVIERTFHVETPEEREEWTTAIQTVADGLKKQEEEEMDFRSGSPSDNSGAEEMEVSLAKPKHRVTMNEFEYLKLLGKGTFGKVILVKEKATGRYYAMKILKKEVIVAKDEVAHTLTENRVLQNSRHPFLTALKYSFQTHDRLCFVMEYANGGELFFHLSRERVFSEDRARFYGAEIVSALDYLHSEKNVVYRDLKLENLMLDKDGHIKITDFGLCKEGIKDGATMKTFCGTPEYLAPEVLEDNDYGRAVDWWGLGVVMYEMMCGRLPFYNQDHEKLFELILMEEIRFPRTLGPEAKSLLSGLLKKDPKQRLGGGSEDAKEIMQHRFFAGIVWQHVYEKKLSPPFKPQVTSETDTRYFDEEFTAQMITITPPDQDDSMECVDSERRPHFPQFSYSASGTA
Casein kinase II, sequence (P67870 whole entry): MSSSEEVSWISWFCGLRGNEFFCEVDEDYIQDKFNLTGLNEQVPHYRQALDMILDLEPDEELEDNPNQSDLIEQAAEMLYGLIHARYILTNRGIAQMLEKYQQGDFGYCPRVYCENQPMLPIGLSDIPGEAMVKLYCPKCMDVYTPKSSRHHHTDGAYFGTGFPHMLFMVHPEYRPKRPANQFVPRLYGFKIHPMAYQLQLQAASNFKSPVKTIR
Casein kinase II, sequence (P68400 whole entry): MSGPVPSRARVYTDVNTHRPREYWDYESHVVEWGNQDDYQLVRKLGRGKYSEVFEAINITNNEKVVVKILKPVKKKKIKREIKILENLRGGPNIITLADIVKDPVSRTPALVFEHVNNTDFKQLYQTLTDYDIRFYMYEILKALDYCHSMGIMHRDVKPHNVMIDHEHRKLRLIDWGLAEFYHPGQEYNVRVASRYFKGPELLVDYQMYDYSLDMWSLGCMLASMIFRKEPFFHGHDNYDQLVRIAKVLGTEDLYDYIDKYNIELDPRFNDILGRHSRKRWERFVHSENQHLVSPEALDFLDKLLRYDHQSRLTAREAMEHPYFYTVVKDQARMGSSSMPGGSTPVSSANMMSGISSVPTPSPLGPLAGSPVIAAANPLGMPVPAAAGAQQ
Casein kinase II, sequence (P19784 whole entry): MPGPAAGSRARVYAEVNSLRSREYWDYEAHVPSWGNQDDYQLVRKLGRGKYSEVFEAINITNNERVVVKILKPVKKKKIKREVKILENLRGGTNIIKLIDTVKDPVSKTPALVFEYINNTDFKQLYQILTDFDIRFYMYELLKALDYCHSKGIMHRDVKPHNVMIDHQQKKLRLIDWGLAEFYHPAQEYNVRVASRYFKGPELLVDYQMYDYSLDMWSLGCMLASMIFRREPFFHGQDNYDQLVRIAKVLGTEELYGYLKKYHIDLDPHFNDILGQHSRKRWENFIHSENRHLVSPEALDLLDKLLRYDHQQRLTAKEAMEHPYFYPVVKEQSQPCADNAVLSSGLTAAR
Proto-oncogene tyrosine-protein kinase Src, sequence (P12931 2-536 limits assumed): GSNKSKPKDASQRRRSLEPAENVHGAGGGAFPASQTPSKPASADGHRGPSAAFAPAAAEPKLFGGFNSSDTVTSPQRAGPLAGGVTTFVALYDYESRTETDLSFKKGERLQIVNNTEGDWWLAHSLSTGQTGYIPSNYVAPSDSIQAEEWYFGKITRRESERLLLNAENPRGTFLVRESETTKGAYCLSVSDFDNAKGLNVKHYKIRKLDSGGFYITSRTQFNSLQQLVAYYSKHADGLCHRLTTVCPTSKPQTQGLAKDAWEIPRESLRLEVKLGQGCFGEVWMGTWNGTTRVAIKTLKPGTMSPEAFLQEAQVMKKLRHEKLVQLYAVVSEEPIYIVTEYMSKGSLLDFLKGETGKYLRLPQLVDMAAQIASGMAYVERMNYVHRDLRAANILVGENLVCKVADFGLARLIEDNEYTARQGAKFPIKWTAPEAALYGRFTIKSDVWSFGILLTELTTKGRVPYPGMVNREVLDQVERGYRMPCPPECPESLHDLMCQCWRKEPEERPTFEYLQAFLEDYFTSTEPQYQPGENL
Cyclin-dependent kinase 1, sequence (P06493 whole entry): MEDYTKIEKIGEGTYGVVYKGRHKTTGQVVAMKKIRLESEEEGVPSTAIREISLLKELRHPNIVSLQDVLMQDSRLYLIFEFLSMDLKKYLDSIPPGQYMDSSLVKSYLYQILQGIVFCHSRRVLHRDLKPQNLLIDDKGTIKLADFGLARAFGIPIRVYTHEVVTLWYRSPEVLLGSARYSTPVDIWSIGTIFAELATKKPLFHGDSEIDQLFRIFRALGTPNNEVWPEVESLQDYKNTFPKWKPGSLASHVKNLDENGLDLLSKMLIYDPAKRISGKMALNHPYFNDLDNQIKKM
RAC-gamma serine/threonine-protein kinase, sequence (Q9Y243 whole entry): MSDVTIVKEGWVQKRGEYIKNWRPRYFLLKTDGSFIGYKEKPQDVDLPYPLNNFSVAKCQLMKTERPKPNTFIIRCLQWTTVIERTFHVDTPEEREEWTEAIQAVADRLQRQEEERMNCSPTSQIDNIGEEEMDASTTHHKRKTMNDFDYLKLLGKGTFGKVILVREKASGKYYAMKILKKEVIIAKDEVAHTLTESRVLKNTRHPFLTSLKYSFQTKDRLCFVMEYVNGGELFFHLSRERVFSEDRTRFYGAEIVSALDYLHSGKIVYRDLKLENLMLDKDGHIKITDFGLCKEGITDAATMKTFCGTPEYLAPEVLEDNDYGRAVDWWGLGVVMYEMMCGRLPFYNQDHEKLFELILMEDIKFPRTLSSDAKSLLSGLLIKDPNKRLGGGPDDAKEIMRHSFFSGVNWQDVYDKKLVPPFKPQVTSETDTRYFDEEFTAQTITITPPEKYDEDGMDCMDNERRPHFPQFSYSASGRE

Structure (SMILES) | IC50 [1] | IC50 [2] | IC50 [3] | IC50 [4] | IC50 [5] | IC50 [6] | IC50 [7] | IC50 [8] | IC50 [9] | IC50 [10] | clearance [11] | AUC [12] | Vd [13] | bioavailability [14] | half-life [15] | IC50 [16] | AUC [17] | IC50 [18]
C#Cc1ncc(OC[C@@H](N)Cc2c[nH]c3ccccc23)cc1-c1ccc2cnccc2c1 | 10800 nM | > 50000 nM | 1 nM | 4900 nM | 5 nM | 39 nM | 8900 nM | 27200 nM | 260 nM | > 50000 nM |  |  |  |  |  |  |  | 
N[C@H](COc1cncc(-c2ccc3c(Cl)nccc3c2)c1)Cc1c[nH]c2ccccc12 |  |  |  |  |  |  |  |  |  |  | 21.7 | 3900 ng·h/mL | 9.5 L/kg | 51% | 5 h |  |  | 
Cc1cc(-c2cncc(OC[C@@H](N)Cc3c[nH]c4ccccc34)c2)cc2ccncc12 |  |  |  |  |  |  |  |  |  |  | 41.7 | 1500 ng·h/mL | 16.4 L/kg | 35% | 4.5 h |  |  | 
N[C@H](COc1cncc(-c2ccc3cnc(F)cc3c2)c1)Cc1c[nH]c2ccccc12 | 3180 nM | 18000 nM | 48 nM | 3400 nM |  |  |  |  |  |  |  |  |  |  |  |  |  | 
Nc1cc2cc(-c3cncc(OC[C@@H](N)Cc4c[nH]c5ccccc45)c3)ccc2cn1 | 100 nM | 480 nM | 8 nM | 22 nM | 21 nM | 76 nM | 8300 nM | 1200 nM | 31 nM | 620 nM | 202 |  | 11.8 L/kg | 0% | 0.7 h | 930 nM | 6900 ng·h/mL | 
N[C@H](COc1cncc(-c2ccc3cnc(Cl)cc3c2)c1)Cc1c[nH]c2ccccc12 |  |  |  |  |  |  |  |  |  |  | 90 | 910 ng·h/mL | 15.5 L/kg | 27% | 2 h |  |  | 
N[C@H](COc1cnc(Cl)c(-c2ccc3cnccc3c2)c1)Cc1c[nH]c2ccccc12 | 13300 nM | 12100 nM | 5 nM | 870 nM | 5 nM | 73 nM | > 5000 nM | 37000 nM | 540 nM | 12700 nM |  |  |  |  |  | 3000 nM |  | 
N[C@H](COc1cncc(-c2ccc3cnccc3c2)c1)Cc1c[nH]c2ccccc12 |  | 2000 nM |  |  |  |  | 6100 nM |  |  |  |  |  | 7 L/kg | 0% | 0.3 h | 1500 nM | 7600 ng·h/mL | 420 nM
